We go through 4 compounds from patent US5763400A, “Ecdysis-triggering hormone compositions” (priority 1996, dated 1998).

Assay [1] relates to pharate 5th instar larvae. In words: Injection into pharate 5th instar larvae: induction of pre-ecdysis and ecdysis behavior. The class given is in vivo, Manduca sexta. Particulars: for biological activity of additional EG peptides: initial RPLC data on EG. On the procedure:
A peptide with ecdysis-triggering activity was also purified from an extract of 50 pharate pupal EG with reversed-phase liquid chromatography (RPLC) (FIG. 1A) . For HPLC fractionation, freshly-dissected EG were homogenized in acidic methanol (MeOH: H2 O:acetic acid, 90:9:1) and the supernatant was evaporated to dryness. Crude extracts of EG were fractionated with a Microsorb C4 column (wide pore 300 A, 4.6 mm/25 cm), with a linearly increasing gradient of acetonitrile (3 to 53% in 90 min) in constant 0.1% TFA/water using a flow rate of 1 ml/min. Fractions were collected based on UV absorbance (220 nm) and vacuum centrifuged to dryness. Individual fractions were re-suspended in physiological saline and injected into pharate fifth instar Manduca sexta larvae. Induction of preecdysis behavior, visible as synchronous dorso-ventral contractions in body segments, were scored as positive responses.
(§1) Natural ecdysis in pharate 5th instar larvae is preceded by a well-defined pre-ecdysis behavior, characterized by dorso-ventral contractions that occur synchronously in abdominal and thoracic segments (Copenhaver and Truman, 1982; Truman and Weeks, 1983, 1985). Contractions, visible as a dimpling of the dorso-lateral body wall, begin in the most posterior segment, and gradually spread anteriorly. Pre-ecdysis behavior typically lasts 60 to 80 min, and is followed by ecdysis behavior, which lasts about 10 min. Ecdysis behavior is characterized by a distinctly different motor pattern consisting of peristaltic waves of contractions, which originate in the most posterior segment and move anteriorly (Weeks and Truman, 1984). Using a pressure transducer to record changes in internal pressure, in vivo measurements of pre-ecdysis and ecdysis contraction patterns were obtained in pharate 5th instar larvae and pharate pupae. Internal hydrostatic pressure was measured in pharate 5th instar larvae and pharate pupae of Manduca sexta with a Gould-Statham P23-ID pressure transducer. The transducer was connected to a saline-filled tube which in turn was attached to the posterior dorsal horn of pharate 5th instar larvae and pharate pupae with low melting point dental wax.
During natural pre-ecdysis in the larva, dorso-ventral contractions typically occur every 10 to 12 seconds with a duration of 5 to 7 seconds (FIG. 2A). When pharate larvae were injected with Mas-ETH (20 pmol to 1 nmol), pre-ecdysis began within 2 to 10 min, and the pattern was indistinguishable from that observed under natural conditions (n=13). The pre-ecdysis induced by Mas-ETH injection lasted 35 to 65 min, and was followed by ecdysis (FIG. 2A).
At about 36 hours preceding natural ecdysis in pharate 5th instar larvae, the first signs of apolysis can be observed as an accumulation of molting fluid in the prothorax. About two hours later, head capsule slip occurs (Curtis et al., 1984). Premature ecdysis behavior induced by Mas-ETH injection (34-10 hours prior to natural ecdysis) lasted from 10 to 45 min. […] Mas-ETH triggered successful ecdysis only after the old cuticle is sufficiently digested, some 6 to 8 hr before normal ecdysis. Sensitivity to ETH, therefore, is shown to exist during the pharate stage.
The ETH-PRP1 peptide was dissolved into physiological saline and injected into pharate fifth instar Manduca sexta larvae. A dose range of 50 pmol to 5 nmol was tested.

In assay [2] the test system is pharate pupae. Kind of assay: Injection into pharate pupae: induction of pre-ecdysis and ecdysis. The class given is in vivo, Manduca sexta. The settings on record: 400 pmol to 1 nmol. How it is done:
as §1
Pharate pupae responded to injections (400 pmol to 1 nmol) (FIG. 2B; n=12) up to 48 hours prior to natural ecdysis. […]

The test system of assay [3] is pharate adults. Kind of assay: Injection into pharate adults: induction of ecdysis (eclosion). The assay is classed as in vivo, Manduca sexta. How it is done: Pharate pupae responded to injections (400 pmol to 1 nmol) (FIG. 2B; n=12) up to 48 hours prior to natural ecdysis. […] Ecdysis followed after a period of 50 to 90 min. Pharate adults responded to Mas-ETH injections (1 to 2 nmol) up to 24 hours prior to natural ecdysis (n=10). Rotatory movements of the abdomen began within 3 to 10 min of injection and were followed by a period of relative quiescence.

The subject of assay [4] is isolated central nervous system of pharate 5th instar larvae. In words: Motor burst patterns of isolated central nervous system of pharate 5th instar larvae, bath application. The assay is classed as cell-based, Manduca sexta. On the procedure:
(§2) The entire central nervous system or a chain of abdominal ganglia dissected from pharate fifth instar larvae or pharate pupae were placed in a 300 ml Sylgard bath and bathed in modified Weever's saline. Motor output was recorded extracellularly from dorsal roots of abdominal ganglia A5, A6, and A7 using polyethylene suction electrodes. Potentials were amplified with Grass P-15 AC amplifiers, captured on video tape, and played back on a Gould Brush pen recorder. To record natural pre-ecdysis and ecdtysis, the nervous system was removed after initiation of the behavior.
For studies involving bath application of synthetic MasETH, pharate 5th instar nerve cords were dissected at -8 hr prior to ecdysis, using liquid-Lilled head and brown mandibles as morphological markers. Pharate pupae were dissected at 8 hours prior to natural ecdysis using brown bars as the morphological marker.
(§3) The tracheal system was removed in all studies. The pattern of pre-eccdysisin isolated pharate 5th instar CNS under natural conditions was quite similar to that elicited by application of 100 nM Mas-ETH. To observe natural pre-ecdysis and ecdysis motor patterns, animals were observed until initiation of pre-ecdysis, at which time nerve cords were quickly removed and prepared for suction electrode recordings. In both instances, pre-ecdysis bursts occurred synchronously in the dorsal nerves of A5-A7 every 10 to 12 seconds with a duration of 5 to 10 sec. Similarly, the burst pattern driving ecdysis in pharate larvae under natural conditions was similar to that resulting from exposure to 1 mM Mas-ETH. Ecdysis bursts occurred every 20 to 30 seconds and were about 20 sec in duration, with an intersegmental delay of about 5 sec. Burst durations and intervals between bursts became longer as the behavior progressed, which corresponded to observations of natural behavior patterns. Optimal Mas-ETH concentrations for triggering pre-ecdysis were lower than those necessary for ecdysis.

In assay [5] the test system is isolated nerve cords lacking the tracheal system. In words: Pre-ecdysis and ecdysis motor patterns in isolated nerve cords lacking the tracheal system. The assay is classed as cell-based, Manduca sexta. The settings on record: absence of the tracheal system. On the procedure: as §2
as §3, with “Burst durations and intervals between bursts became longer as the behavior progressed, which corresponded to observations of natural behavior patterns. Optimal Mas-ETH concentrations for triggering pre-ecdysis were lower than those necessary for ecdysis.” left out

The subject of assay [6] is pharate fourth instar Manduca sexta larvae. In words: Injection into pharate fourth instar larvae (liquid-filled head capsule stage), carboxy-terminus study. The settings on record: in vivo. On the procedure: The amidated and acid form of the 26 mer of SEQ ID NO:3 was prepared using a solid state synthesizer. This procedure is the same as that described at example 7. The amidated and acid forms of ETH used in the present study were synthesized by Research Genetics Corporation using these standard protocols (5 mg. each of the amidated-ETH and the acid-ETH).

Assay [7] deals with pharate 5th instar larvae. In words: Injection into pharate 5th instar larvae: induction of pre-ecdysis and ecdysis behavior. The class given is in vivo, Manduca sexta. Particulars: injected into insect larvae.
A short description of assay [8]: Physiological actions of ETH-PRP2 (no method described).
The subject of assay [9] is larval insects. Kind of assay: Injection of synthetic Bom-ETH forms into larval insects. The settings on record: free acid at doses much higher than the amidated form. The assay is classed as in vivo, Bombyx mori. On the procedure: Synthetic Bom-ETH was prepared according to standard solid phase peptide synthesis methods by Research Genetics, Inc. (Birmingham, AL) to provide a peptide having the amino acid sequence of the 23 mer. Both the amidated and free --COOH terminal forms were prepared.

Entries after “also recorded” stand apart in the source; their conditions may differ. Ends that are not written are not given here.

For the compound `CCOc1ccc2nc(S(N)(=O)=O)sc2c1` [Mas-ETH], in assay [1] (injected at head capsule slip, 34 hours prior to normal ecdysis), the “behavior exhibited after injection” value is “both pre-ecdysis and ecdysis motor patterns”. The “outcome of premature ecdysis behavior” value in assay [1] (injection 34-10 hours prior to natural ecdysis) was “ecdysis could not be completed”. The “time prior to normal ecdysis at which larvae respond to injection” value in assay [1] (pre-ecdysis behavior, n=7) is on record as “up to 36 hours”. For the same compound, the “pre-ecdysis by blood pressure measurements” value in [2] (earlier stages of development) is given as “clear rhythm within minutes”. The “time prior to natural ecdysis at which pharate pupae respond to injection” value in assay [2] (n=12) was “up to 48 hours”. In addition, in [3] (1 to 2 nmol, n=10), the “time prior to natural ecdysis at which pharate adults respond to injection” value is listed as “up to 24 hours”. Besides, the “condition of emerged adults” value in assay [3] (emerged before resorption of molting fluid) is recorded as “could not inflate their wings”. Further, in assay [4] (100 nM, dorsal nerves of A5-A7), the “interval of pre-ecdysis bursts (every)” value fell in the range of 10 to 15 s and the pre-ecdysis burst duration was 5 to 7 s. In assay [4] (1 mM Mas-ETH), the ecdysis burst duration entry is given as “about 20 sec” and the “intersegmental delay of ecdysis bursts” value is on record as “about 5 sec”. Also, the “pre-ecdysis and ecdysis motor patterns of isolated CNS” value in assay [5] was “elicited motor burst patterns; also recorded: can generate pre-ecdysis and ecdysis motor patterns”. Moreover, the “pre-ecdysis and ecdysis motor patterns of isolated CNS” value in assay [5] (listed as ETH) was “responds to ETH; also recorded: responded; also recorded: not required”. Moreover, the “dose causing preecdysis followed by ecdysis” value in assay [6] is given as at most 1 pmol.

For “ETH-PRP1: 47-mer peptide, Asn 66 to Met 112 of the ETH precursor, SEQ ID NO:14, chemically synthesized (NYDSENRFDIPKLYPWRAENTELYEDDAQPTNGEEINGFYGKQRENM)”, in assay [1] (dose range 50 pmol to 5 nmol), the ecdysis behavior result is reported as “did not elicit ecdysis behavior” and the “latency from injection to preecdysis behavior” value lay in the range of 15 to 20 min. In addition, the pre-ecdysis stimulating activity result in assay [1] (in vivo) is “pre-ecdysis stimulating activity”. In assay [1], the “biological activity of additional EG peptides” value is given as “ETH-like biological activity”. The cardioactivity entry in [7] is “causes cardioacceleration”.

For “ETH-PRP2: 15-mer peptide deduced from the ETH precursor, Gln 20 to Val 34, SEQ ID NO:13 (QVESSFIKPNNVPRV)”, the “biological activity of additional EG peptides” value in [1] is listed as “ETH-like biological activity”. Also, in assay [8], the cardioacceleration entry is reported as “acts as a cardioaccelerator” and the “effect on physiological actions of Mas-ETH” value is on record as “increasing its ecdysis triggering activity”.

For the compound “SNEAFDEDVMGYVIKSNKNIPRM (not fully specified (C-terminus)) [Bom-ETH amidated form]”, in assay [9], the “biological activity upon injection” value is reported as “biologically active”.
